# Measured values taken from patent US20200278355A1, “CONJUGATED PROTEINS AND USES THEREOF” (THE SCRIPPS RESEARCH INSTITUTE, priority 2017, published 2020).
# How the values were obtained:
# [1] = target: T1, HA-NR0B1-WT binding to FLAG-SNW1 (Homo sapiens, UniProt P51843); assay: Modified in vitro binding assay: HA-NR0B1-WT from compound-treated HEK293T cells binding to FLAG-SNW1; type: cell-based; conditions: HEK293T cells expressing HA-NR0B1-WT treated with compound, lysate binding to FLAG-SNW1
# T1 construct: expressed in transfected cells; host or cells: HEK293T (pRK5-based plasmids)
# T1 sequence (P51843 whole entry): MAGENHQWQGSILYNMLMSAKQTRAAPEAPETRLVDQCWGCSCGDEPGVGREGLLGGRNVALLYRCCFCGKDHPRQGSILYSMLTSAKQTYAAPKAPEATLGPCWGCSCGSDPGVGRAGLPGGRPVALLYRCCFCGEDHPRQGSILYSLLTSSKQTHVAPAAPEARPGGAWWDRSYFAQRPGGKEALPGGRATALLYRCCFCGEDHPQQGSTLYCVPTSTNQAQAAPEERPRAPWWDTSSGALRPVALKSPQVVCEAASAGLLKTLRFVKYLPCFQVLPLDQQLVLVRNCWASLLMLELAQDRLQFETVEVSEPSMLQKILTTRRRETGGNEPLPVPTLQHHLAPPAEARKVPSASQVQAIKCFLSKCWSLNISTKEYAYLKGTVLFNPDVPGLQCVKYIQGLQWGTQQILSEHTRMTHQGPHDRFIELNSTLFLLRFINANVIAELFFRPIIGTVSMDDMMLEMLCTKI
# Procedure: FIG. 5A-FIG. 5G show covalent ligand targeting C274 disrupts NR0B1 protein complexes. […] Percentage of NR0B1 bound to SNW1 was normalized to vehicle (DMSO). A hit compound BPK-26 is marked in red. […] HEK293T cells expressing the indicated proteins were treated with BPK-29 or vehicle (3 h) prior to treatment with BPK-29yne (30 min). Immunoprecipiated proteins were analyzed by in-gel fluorescence-scanning and immunoblotting. […] HEK293T cells expressing HA-NR0B1-WT or HA-NR0B1-C274V proteins were treated with DMSO or BPK-29, after which lysates were generated and evaluated for binding to FLAG-SNW1, as shown in (B).
# FIG. 11A-FIG. 11F illustrate a covalent ligand targeting Cys274 disrupts NR0B1 protein complexes. […] See also FIG. 5C. […] Top: Structures of screening hit BPK-28 and synthesized derivatives. […] FLAG-immunoprecipitates were prepared from each lysate and subjected to proteolytic digestion, whereupon tryptic peptides harboring C274 were analyzed by LC-MS/MS. […] Immunoprecipitates were analyzed by in-gel fluorescence-scanning to assess BPK-29yne labeling or by immunoblot for FLAG-NR0B1. […] In a modified in vitro binding assay shown in FIG. 5B, HEK293T cells expressing HA-NR0B1-WT or an HA-NR0B1-C274V mutant were treated with DMSO or BPK-26 (20 μM, 3 h), after which lysates were and interaction with FLAG-SNW1 assessed. […]
# [2] = system: CRY1, DEPDC1, and CPLX2 expression in KEAP1-WT H2009 cells; assay: Gene expression changes (qPCR) in KEAP1-WT NSCLC cells; type: cell-based, human
smiles,measurement,setting,value
"O=C(c1ccc(N2CCOCC2)cc1)N1CCCC(N(Cc2ccccc2)C(=O)CCl)CC1 (centres unmarked) [BPK-29, N-benzyl-2-chloro-N-(1-(4-morpholinobenzoyl)azepan-4-yl)acetamide]",disruption of NR0B1-WT protein interactions (binding to FLAG-SNW1),[1],disrupts protein interactions for NR0B1-WT
same,"gene expression changes (CRY1, DEPDC1, CPLX2)",[2],not observed
